Source: paper PMC6270011, “Design and Synthesis of Arylthiophene-2-Carbaldehydes via Suzuki-Miyaura Reactions and Their Biological Evaluation” (Molecules, 2013)
In brackets after ≈: the same amount, converted by molar mass. Read-outs that look alike come from different tables or passages of the source.

How the values were obtained:
Salmonella typhi = assay: Antibacterial activity (disc / inhibition zone) against Salmonella typhi; details: Salmonella enterica; for zone of inhibition at 25 µg/mL / zone of inhibition at 50 µg/mL: read-out: Inhibition zone, S. typhi
Shigella dysenteriae = assay: Antibacterial activity (disc / inhibition zone) against Shigella dysenteriae; details: read-out: Inhibition zone, S. dysenteriae
[1] = Nitric oxide (NO) scavenging assay; assay type: biochemical
Text: Nitric oxide (NO) is a free radical causing inflammatory disorders and cancer in the human body when sodium nitroprusside decomposes to produce nitric oxide. The antioxidant activity of various thiophene derivatives has been reported in the literature and it has also been observed that compounds with high antioxidant activity served as antitumor agents. The newly synthesized compounds reacted directly with nitric oxide and inhibited nitrite formation in an excellent way.
The reaction mixtures comprising sample solution (2 µL), phosphate buffer (17 µL) and sodium nitroprusside (20 µL) were incubated at 37 °C for 2 h in well plates. Then Griess reagent (20 µL, 0.3% sulphanilic acid in glacial acetic acid + 0.1% naphthylethylenediamine (NED): equal volumes of both solutions mixed just before use) was added to each well plate and the mixture kept at room temperature for 20 min to develop the color. The absorbance was measured at 528 nm by using an ELISA reader. The results were processed using Gen 5 software. All the reactions were performed in triplicate. Positive control (containing known antioxidant) and control (containing all samples) were run in parallel. Negative control was used to calibrate the instrument. The % age antioxidant activity was determined by using the following formula: % antioxidant activity = [(Absorbance of control − absorbance of sample)/(Absorbance of control)] × 100

Staphylococcus aureus = assay: Antibacterial activity (disc / inhibition zone) against Staphylococcus aureus; details: read-out: Inhibition zone, S. aureus
[2] = test system: human red blood cells (erythrocytes); assay type: cell-based
Procedure: Three mL of freshly obtained human blood was placed in heparinized tubes to avoid coagulation, gently mixed and poured into a sterile 15 mL Falcon tube and centrifuged for 5 min at 1,000 ×g. The supernatant was discarded and red blood cells were washed three times with chilled (4 °C) sterile isotonic phosphate buffer saline pH 7.4 (5 mL). Erythrocytes (10^8 cells/mL) were maintained for each assay by dilution with phosphate buffer saline. Erythrocytes were counted on a heamacytometer. Twenty µL of each compound was mixed with red blood cells suspension (180 μL) separately. The samples were incubated at 37 °C for 35 min. The samples were placed on ice for 5 min and then agitated at 1,000 ×g for 5 min. Supernatant (100 µL) were taken from each tube and diluted 10 times with chilled (4 °C) phosphate buffered saline. Triton X-100 (0.1% v/v) was taken as a positive control and PBS was negative control and then subjected to the same process. […] The percentage RBSs lyses for each sample was calculated.

Bacillus subtilis = assay: Antibacterial activity (disc / inhibition zone) against Bacillus subtilis; details: read-out: Inhibition zone, B. subtilis
Escherichia coli = assay: Antibacterial activity (disc / inhibition zone) against Escherichia coli; details: read-out: Inhibition zone, E.coli
Pseudomonas aeruginosa = assay: Antibacterial activity (disc / inhibition zone) against Pseudomonas aeruginosa; details: for zone of inhibition at 25 µg/mL / zone of inhibition at 50 µg/mL: read-out: Inhibition zone, P. aeruginosa
[3] = 25 µg/mL, read-out: % Activity at 25 µg (NO scavenging)
[4] = 50 µg/mL, read-out: % Activity at 50 µg (NO scavenging)
[5] = 100 µg/mL, read-out: % Activity at 100 µg (NO scavenging)
[6] = human erythrocytes, 37 °C, 35 min

Molecule	zone of inhibition at 25 µg/mL (Salmonella typhi) [mm]	zone of inhibition at 50 µg/mL (Salmonella typhi) [mm]	zone of inhibition at 25 µg/mL (Shigella dysenteriae) [mm]	zone of inhibition at 50 µg/mL (Shigella dysenteriae) [mm]	inhibition [1, 3] [%]	inhibition [1, 4] [%]	inhibition [1, 5] [%]	zone of inhibition at 25 µg/mL (Staphylococcus aureus) [mm]	zone of inhibition at 50 µg/mL (Staphylococcus aureus) [mm]	Haemolytic activity, in words [2]	Haemolytic activity, percentage of lysis (Average ± SD) [2, 6] [%]	melting point [°C]	zone of inhibition at 25 µg/mL (Bacillus subtilis) [mm]	zone of inhibition at 50 µg/mL (Bacillus subtilis) [mm]	zone of inhibition at 25 µg/mL (Escherichia coli) [mm]	zone of inhibition at 50 µg/mL (Escherichia coli) [mm]	zone of inhibition at 25 µg/mL (Pseudomonas aeruginosa) [mm]	zone of inhibition at 50 µg/mL (Pseudomonas aeruginosa) [mm]	other results
COc1ccc(-c2csc(C=O)c2)cc1 [2f, 4-(4-Methoxyphenyl)thiophene-2-carbaldehyde]	36 ± 0.01	63 ± 0.11	42 ± 0.7	61.4 ± 0.56	5 ± 0.005	10 ± 0.028	25 ± 0.005	34 ± 0.05	61.4 ± 0.56	highest haemolytic action	6.083 ± 0.143	68 to 70	24.4 ± 0.03	54 ± 0.23	9 ± 0.03	8 ± 0.01	34 ± 0.04	64 ± 0.04	IC50 (Salmonella typhi; read-out: IC50 against Salmonella typhi): 37.9 µg/mL (≈ 174 µM)
O=Cc1cc(-c2ccc(Cl)c(Cl)c2)cs1 [2h, 4-(3,4-Dichlorophenyl)thiophene-2-carbaldehyde]	30 ± 0.13	57 ± 0.01	29 ± 0.19	59.4 ± 0.45	13 ± 0.002	20 ± 0.025	35 ± 0.077	39.4 ± 0.05	59.4 ± 0.45		3.487 ± 0.054	158 to 160	28 ± 0.03	58 ± 0.22	32 ± 0.03	60 ± 0.24	40 ± 0.041	67 ± 0.021	
O=Cc1cc(-c2ccc(F)c(Cl)c2)cs1 [2i, 4-(3-Chloro-4-fluorophenyl)thiophene-2-carbaldehyde]	33 ± 0.25	59.5 ± 0.25	43 ± 0.105	58 ± 0.16	12 ± 0.05	57 ± 0.0021	72 ± 0.009	27.8 ± 0.12	58 ± 0.16	highest haemolytic action	9.779 ± 0.095	108 to 110	36.5 ± 0.04	56 ± 0.5	16 ± 0.043	26 ± 0.023	42 ± 0.04	66 ± 0.01	IC50 (NO scavenging) [1]: 46.1 µg/mL (≈ 192 µM)
O=C1O[C@H]([C@@H](O)CO)C(O)=C1O [Ascorbic Acid, ascorbic acid, reference compound]					40 ± 0.038	61 ± 0.004	77 ± 0.001												
[H]/N=C(/N)N[C@H]1[C@H](O)[C@@H](O)[C@H](O[C@@H]2O[C@@H](C)[C@](O)(C=O)[C@H]2O[C@@H]2O[C@@H](CO)[C@H](O)[C@@H](O)[C@@H]2NC)[C@@H](N/C(N)=N\[H])[C@@H]1O [Streptomycin, streptomycin, reference compound]	33 ± 0.001	53 ± 0.001	48 ± 0.05	55 ± 0.034				15 ± 0.034	55 ± 0.03				34 ± 0.015	53 ± 0.001	29.3 ± 0.002	63 ± 0.002	41.5 ± 0.002	63 ± 0.002	IC50 (Pseudomonas aeruginosa; read-out: IC50 against Pseudomonas aeruginosa): 35.2 µg/mL (≈ 60.5 µM)
Triton X-100 [Triton-X 100, reference compound]																			Haemolytic activity, percentage of lysis (Average ± SD) [2]: 99.824 ± 0.536%
